Data from patent US10793535B2, “Heterocyclic glutaminase inhibitors” (Calithera Biosciences, Inc., priority 2012, dated 2020).

Tests used:
[1] = test system: multiple myeloma cells (MM1S cells, RPMI-8226 cells); test: Treatment of multiple myeloma cells with a combination of drugs; type: cell-based; conditions: 72 hours, Cell Titer Glo, combination indices (Calcusyn)
Protocol: At the end of the incubation, cell viability was measured using Cell Titer Glo as per manufacturer's protocol (Promega, Madison, Wis.). Measured values for compound-treated cells were normalized to DMSO-treated cells and data is reported as a cell survival ratio with a value of 1 (one) corresponding to maximum cell survival and a value of 0 (zero) corresponding to no cell survival. Cell survival ratios for all compound treatments are represented as bar graphs. Combination indices were calculated using the Calcusyn program (biosoft.com) and reported for individual mixtures of compound 670 and pomalidomide [POM] (panels A &C) and individual mixtures of compound 670 and dexamethasone [DEX] (panels B & D). Compound mixtures that produced a synergistic anti-tumor activity are highlighted.

[2] = Pharmacokinetic studies in rats; type: in vivo; conditions: female, Sprague-Dawley, plasma, Rat
Protocol: For PK studies performed in rats, groups of three female Sprague-Dawley Rats, age 7-10 weeks, with jugular vein cannulae were dosed orally by gavage (5-10 mL/kg) with test compounds. Serial blood samples were collected via the jugular vein cannulae at multiple time-points pre and post-dose. Blood samples were placed into K2 EDTA coated tubes on kept on ice. Samples were centrifuged at 2500×g for 10 minutes at 4° C. and plasma isolated. Plasma was stored at ˜70° C. until bioanalytical analysis.
(§1) The plasma samples were analyzed using Liquid chromatography tandem mass spectrometry (LC/MS/MS) methods. Frozen plasma samples were thawed on ice or room temperature. Aliquotes of study plasma samples and calibration samples prepared in the same matrix as the study samples were quenched in an organic solvent (methanol, acetonitrole or DMF) containing an internal standard. The mixtures were then centrifuged and filtered and the filtrates were injected to an LC/MS/MS system to determine concentrations of test compounds.

[3] = test system: H2122 lung adenocarcinoma xenograft; test: Lung adenocarcinoma xenograft efficacy study; type: in vivo, mouse; conditions: 200 mg/kg orally BID for 23 days
Protocol: Female scid/beige mice (n=20) age 6-8 weeks were implanted subcutaneously with 1×10^7 H2122 lung adenocarcinoma cells per mouse suspended in PBS. […] For both groups, dosing was initiated 24 hours post-implant and continued orally BID for 23 days. Tumors were measured with calipers three times per week and tumor volume calculated using the formula tumor volume (mm^3)=(a×b^2/2) where ‘b’ is the smallest diameter and ‘a’ is the largest perpendicular diameter. **P-value <0.01 (Two-sided T-test).

[4] = Pharmacokinetic studies in mice; type: in vivo; conditions: female, CD-1, mouse, plasma, po, 25% HPBCD/10 mM Citrate pH 2.2, Solution
Protocol: For PK studies performed in mice, female CD-1 mice, age 5-8 weeks, were dosed orally by gavage (10 mL/kg volume) with test compounds. At pre-determined time-points (e.g. 1, 3, and 6 hrs) post-dosing, groups of three mice were sacrificed by CO2 inhalation and blood collected via cardiac puncture. Blood samples were placed into K2 EDTA coated tubes and kept on ice. Samples were centrifuged at 2000×g for 10 minutes at 4° C. and plasma isolated. Plasma was stored at ˜70° C. until bioanalytical analysis.
as §1

[5] = test system: RPMI-8226 multiple myeloma xenograft; test: Multiple myeloma xenograft study; type: in vivo, mouse; conditions: RPMI-8226 xenograft, 200 mg/kg orally BID for 28 days
Protocol: Female CB.17 SCID mice (n=20) age 8-12 weeks were implanted subcutaneously with 1×10^7 RPMI-8226 myeloma cells per mouse mixed 1:1 with Matrigel. […] For both groups, dosing was initiated when tumors reached a volume of 100-150 mm^3 and continued orally BID for 28 days. Tumors were measured with calipers two times per week and tumor volume calculated using the formula tumor volume (mm^3)=(a×b^2/2) where ‘b’ is the smallest diameter and ‘a’ is the largest perpendicular diameter. **P-value <0.01 (Two-sided T-test).

P493-6 (myc "on") cells = test: Cell proliferation assay; type: cell-based; conditions: read-out: Cell prolif P493 72 h IC50; 72 h
Protocol: P493-6 (myc “on”) cells were maintained in growth media (RPMI-1640, 10% FBS, 2 mM glutamine, 100 units/ml Penicillin and 100 μg/ml streptomycin) at 37° C. with 5% CO2. For compound assay, P493-6 cells were plated in 96-well V-bottom plates on the day of compound addition in 50 μl of growth media at a cell density of 200,000 cells/ml (10,000 cells/well). Compounds were serially diluted in 100% DMSO at 200-times the final concentration. Compounds were diluted 100-fold into growth media and then 50 μl of this mixture was added to cell plates making the final concentration of DMSO 0.5%. Cells were incubated with compound for 72 hrs at 37° C. with 5% CO2 and analyzed for antiproliferative effects either by Cell Titer Glo (Promega) or FACS analysis using the Viacount (Millipore) kit on the Guava instrument.

Caco-2 cell monolayers = test: Caco-2 permeability assay; type: in vitro ADME, human
Text: Caco-2 cells are commonly used in a confluent monolayer on a cell culture insert filter. When cultured in this format and under specific conditions, the cells become differentiated and polarized such that their phenotype, morphologically and functionally resembles the enterocytes lining the small intestine. The cell monolayer provides a physical and biochemical barrier to the passage of small molecules, and is widely used across the pharmaceutical industry as an in vitro model of the human small intestinal mucosa to predict the absorption of orally administered drugs (Hidalgo et al., Gastroenterology, 1989; Artursson, J. Pharm. Sci., 1990). The correlation between the in vitro apparent permeability (P ? app) across Caco-2 monolayers and the in vivo absorption is well established (Artursson et al., Biochem. Biophys. Res. Comm., 1991).
The present assay was used to determine the bidirectional permeability of the compounds of the invention through Caco-2 cell monolayers. Caco-2 cells were grown in confluent monolayers where the media of both the apical (A) and basolateral (B) sides were at pH 7.4. Compounds were dosed at 1 μM in the presence of 200 μM Lucifer Yellow, on the apical side (A→B) or the basolateral side (B→A) for assessment, in duplicate.
The absorption potential of compounds were classified as either Low (P-app<1×10^−6 cm/s) or High (P-app>1×10^−6 cm/s).

[6] = 25 mg/kg oral, 20% HPBCD/10 mM Citrate pH 2.0, Solution
[7] = 80 mg/kg oral, 65% HPBCD/10 mM Citrate pH 2.6, Solution
[8] = 250 mg/kg oral, 40% HPBCD/10 mM Citrate pH 2.2, Solution
[9] = 500 mg/kg oral, 40% HPBCD/10 mM Citrate pH 2.2, Solution

Cmax [2, 6]: 4.4 µM | Tmax [2, 6]: 1 h | Cmax [2, 7]: 12.5 µM | Tmax [2, 7]: 1 h | Cmax [2, 8]: 9.9 µM | Tmax [2, 8]: 24 h | Cmax [2, 9]: 15.3 µM | Tmax [2, 9]: 2 h | Cmax ([4]; 100 mg/kg, 100 mg/kg oral): 5.75 µM | Tmax ([4]; 100 mg/kg, 100 mg/kg oral): 1 h | Cmax ([4]; 200 mg/kg, 200 mg/kg oral): 5.05 µM | Tmax ([4]; 200 mg/kg, 200 mg/kg oral): 1 h
SMILES: O=C(Cc1cccc(OC(F)(F)F)c1)Nc1ccc(CCCCc2nnc(NC(=O)Cc3ccccn3)s2)nn1 [Compound 670]
anti-tumor effect in combination with dexamethasone [1]: synergizes | anti-tumor effect in combination with pomalidomide [1]: synergizes | tumor size [3]: reduced tumor size | tumor size [5]: reduced tumor size | IC50 (P493-6 (myc "on") cells): 30 nM | Significant Efflux (Caco-2 cell monolayers): Yes (efflux ratios being significant when greater than or equal to 3 when the Papp (B→A) was greater than or equal to 1×10^−6 cm/s)
